The text below walks through data of US6270780A, “Cosmetic compositions containing resveratrol” (Chesebrough-Pond's USA Co., division of Conopco, priority 1998, dated 2001).

Read-outs that look alike come from different tables or passages of the source.

In one data set the test system is ZR75 cells. The experiment in a line: 3H-thymidine incorporation (DNA synthesis) / proliferation of ZR75 cells, estrogen-like activity. It is filed as cell-based, human. An excerpt:
The following test was employed to determine whether resveratrol has an estrogen-like activity:
The ZR75 cell line is a ductal breast carcinoma cell line, originally isolated from malignant mammary epithelium of a person (Engel et al., Human breast carcinoma cells in continuous culture: A review., Cancer Res., 38: 4327-4339, 1978). This cell line contains receptors for estrogen, progesterone and other steroid hormones, but responds through an increase in proliferation only to estrogen. The cell line contains high affinity estrogen-specific receptors. Therefore, this cell line is used for testing estrogen-like activity (Markiewicz et al., In vitro bioassays of non-steroidal phytoestrogens, J. Steroid Biochem. Molec. Biol., 45: 399-405, 1993)
Methodology Used for Determining the Rate of DNA Synthesis in Cells
The incorporation of ^3 H-thymidine by cultured cells was used as an assay of cell proliferation (both for ZR75 cells and for keratinocytes). Thymidine is one of four deoxynucleosides which are the monomeric units of DNA. Prior to cell division of a somatic cell, the complete genome of the cell undergoing cell division is replicated. This involves large scale DNA synthesis by the cell and enables both daughter cells to receive identical copies of the genetic material. When ^3 H-thymidine is included in the culture media of cells which are synthesizing DNA in preparation for cell division then the labeled thymidine is incorporated into the newly synthesized DNA. The extent of incorporation of ^3 H-thymidine into a population of cells is proportional to the rate of DNA synthesis by this population of cells and therefore an indication of their cellular proliferation.
ZR75 cells (from American Type Culture Collection, Rockville, Md.) were grown in RPMI1640 media (from Gibco Life Technologies) with 10% fetal bovine serum (FBS) , 100 units penicillin per ml and 100 units of streptomycin per ml. All incubations were performed at 37° C. in 5% CO2. […] The cells were seeded at a density of one million per 75 cm2 flask. For the experiment, the cells were seeded in 24 well plates at 100,000 cells per ml per well.
After growing for 24 hours, the media was removed, the cells were washed with PBS (phosphate buffered saline, 0.01 M sodium phosphate, 0.138 M sodium chloride, 0.0027 M potassium chloride, pH 7.4) and 1 ml of RPMI 1640 without serum (but with streptomycin and penicillin) was added. Stock solutions of resveratrol in dimethyl sulfoxide (DMSO) and estradiol in water were prepared. […] After another 24 hours, one μCi of [methyl-3H] thymidine was added to each well. The media was removed after 24 hours. The cells were washed once in PBS, the PBS was removed completely and the cells were left on ice to incubate with 1 ml per well of 10% TCA (trichloroacetic acid) for 30 minutes. The plates were washed 3 times with 5% TCA to remove all traces of thymidine which wasn't incorporated into the cells. 500 μl of 0.1M sodium hydroxide was added to each well and the plates were incubated at room temperature for at least 30 minutes. 250 μl of each sample was transferred to scintillation vials and after adding 5 mL of counting fluid, the vials were counted for 5 minutes each on a setting for tritium. […] Values were expressed as mean of quadruplicate wells +/- standard deviation.

Another data set has as its system B16 F1 cells. The experiment in a line: Melanin production by B16 cells. It is filed as cell-based. How it is done: B16 F1 cells were purchased from ATCC (Rockville, Md.) Subconfluent B16 cells were seeded in 96 well microtiter plates at a density of 5000 cells/well and cultured overnight in DMEM (Life Technologies, NY) containing 10% Fetal Bovine Serum, 1% penicillin/streptomycin without phenol red) at 37° C. under 5% CO2. After 24 hours, the media was replaced with fresh media containing the treatments. Cells were incubated for 72 hours at which time melanin was visible in the control treatment. Next, the melanin containing media from each well was transferred to a clean 96 well plate and quantified by reading the absorbance at 530 nm using a microplate Spectrophotometer.
(§1) For each treatment, the average of four replicate readings was calculated and expressed as percent of the average for the untreated control.
The lower the % melanin value (with a viability value of >50%), the better the skin lightening potential.

Data set [1] is described as follows: Cell viability of B16 cells by neutral red dye uptake. It is filed as cell-based. To be noted: mouse, b16 f1 cells. The method, then:
In order to ensure that melanin inhibition was not simply due to cell killing, cell viability was assessed by neutral red dye uptake. After the removal of media, 200 μL of pre-warmed medium containing 25 μg/ml neutral red dye was added to each well and incubated for 3 hours. Cells were washed 2× with PBS. The dye was extracted by adding […] of 50 H2O: 49 ethanol: 1 acetic acid and then gently shaken at room temperature for 20 minutes. The dye was quantified by reading the absorbance at 530 nm. Only viable cells are expected to take up the dye and the absorbance is directly proportional to the number of viable cells surviving the treatment.
as §1

The next data set concerns cyclo-oxygenase. To be noted: known; cited from earlier work.
Where [2] appears, read: Homo sapiens, ZR75, read-out: DNA synthesis (% of Control), EXPT 1, control DMSO.
Where [3] appears, read: Homo sapiens, ZR75, read-out: DNA synthesis (% of Control), EXPT 2, control DMSO.

Turning to `Oc1ccc(/C=C/c2cc(O)cc(O)c2)cc1` [Resveratrol, 3,4'5-stilbenetriol], in the data set with ZR75 cells (setting [2]), the activity at 0.5 µM is 69.7 ± 10%, the activity at 1 µM was 58.8 ± 9%, the activity at 10 µM is 208 ± 32.5% and the activity at 20 µM amounted to 135 ± 21.4%. The activity at 40 µM in the data set on ZR75 cells (Homo sapiens, ZR75, read-out: DNA synthesis (% of Control), EXPT 1, 40 μM, control DMSO) worked out at 60.8 ± 26.4%. The activity at 50 µM with ZR75 cells (Homo sapiens, ZR75, read-out: DNA synthesis (% of Control), EXPT 1, 50 μM, control DMSO) stood at 4.1 ± 1.4%. Besides, in the data set on ZR75 cells (setting [3]), the activity at 0.5 µM is 56.8 ± 4.2%, the activity at 1 µM is 60.5 ± 3.6%, the activity at 10 µM is 163 ± 13.7% and the activity at 20 µM amounted to 68 ± 3.9%. In the data set with ZR75 cells (Homo sapiens, ZR75, read-out: DNA synthesis (% of Control), EXPT 2, 5 μM, control DMSO), the activity at 5 µM is 159 ± 4.1%. For the same molecule, the activity at 15 µM in the data set on ZR75 cells (Homo sapiens, ZR75, read-out: DNA synthesis (% of Control), EXPT 2, 15 μM, control DMSO) amounted to 119 ± 2.5%. Moreover, the “proliferation of ZR 75 cells” value in the data set on ZR75 cells (concentration from 5 to 20 μM) is reported as “increased proliferation of ZR 75 cells”. Also, in the data set with B16 F1 cells (Mus musculus, B16-F1, 10 μM, 72 hours), the activity at 10 µM was 80%. Further, in the data set on B16 F1 cells (Mus musculus, B16-F1, 25 μM, 72 hours), the activity at 25 µM was determined as 4%. Further, in the data set on B16 F1 cells (Mus musculus, B16-F1, 50 μM, 72 hours), the activity at 50 µM is 3.9%. Further, the activity at 100 µM in the data set with B16 F1 cells (Mus musculus, B16-F1, 100 μM, 72 hours) came to 6.6%. Moreover, in the data set on B16 F1 cells (all concentrations tested where viability was greater than 50%), the “melanin production by skin cells” value is recorded as “inhibited melanin production by skin cells”. The viability at 72 h, 10 µM in data set [1] (10 μM) amounted to 94.6%. Also, the viability at 72 h, 25 µM in data set [1] (25 μM) stood at 86.8%. The molecule further registered a viability at 72 h, 50 µM in data set [1] (50 μM) of 69.2%. This molecule also showed a viability at 72 h, 100 µM in data set [1] (100 μM) of 1.8%. Further, the cyclo-oxygenase inhibition entry in the data set on cyclo-oxygenase is given as “known cyclo-oxygenase inhibitor”.
